From PubChem BioAssay (NCI) come the findings set out here.

SMILES strings stand for the structures. “And” between values parts separate entries of the source, which are not always exact repeats. Identical values can stand only once.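 Five concentrations, 48 hours, 96-well plates. GI50: concentration for 50% inhibition of growth. TGI is the concentration that stops growth completely.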 Some results are limits rather than exact numbers.

What all share (test): inhibition of tumour cell growth, NCI panel, 48 h
The test system of test [1] is OVCAR-8 ovarian.
In test [2] the test system is NCI-H522 lung.
The test system of test [3] is EKVX NSCLC.
Test [4] relates to HCT-116 colon.
Test [5] deals with SN12C renal.
Test [6] relates to M14 melanoma.
Test [7] deals with OVCAR-3 ovarian.
Test [8] deals with MCF7 breast.
Test [9] relates to COLO 205 colon.
The subject of test [10] is SR leukemia.

As to `C[C@@H](COCCC(=O)N1CCN(c2ncc(C(F)(F)F)cn2)CC1)Nc1cn[nH]c(=O)c1C(F)(F)F`, the GI50 is 32.7 µM in test [1]; 96.9 µM in test [2]; over 94 µM in test [3]; 40.3 µM in [4]; 31.1 µM in test [5]; 32.9 µM in [6]. The GI50 in test [7] is 97.5 µM; in test [8], 31.2 µM; in [9], 98.6 µM; in test [10] it was 4.04 µM. Moreover, the TGI in test [1], in test [2], in [3], in test [4], in [5] and in test [6] was over 100 µM in each case. For the same compound, the TGI in test [7], in [8], in [9] and in [10] was over 100 µM in each case.

In the case of `NC(=O)c1ccccc1NC(=O)c1ccccc1Cl`, the GI50 in [1], in test [2], in [3], in test [4], in test [5] and in test [6] was over 100 µM in each case. Further, the GI50 in test [7], in [8], in test [9] and in test [10] was over 100 µM each time. Also, the TGI in [1], in [2], in test [3], in test [4], in [5] and in [6] was over 100 µM in each case. The TGI in [7], in test [8], in [9] and in [10] was over 100 µM throughout.

On to `Cn1cnc2c(F)c(Nc3ccc(Br)cc3F)c(C(=O)NOCCO)cc21`, for which the GI50 in test [1] is > 2.17 µM and 99.7 µM; in test [2], over 63.2 µM; in test [3], 0.109 µM and 0.503 µM; in test [4], 0.203 µM and 0.317 µM; in test [5], 13.7 µM; in test [6], 0.0175 µM and 0.0233 µM. The GI50 in test [7] was over 100 µM; in [8], over 100 µM; in test [9], 0.0113 µM and 0.0236 µM; in [10], over 47 µM. For the same compound, the TGI in [1] is over 100 µM; in test [2], over 100 µM; in test [3] it was over 100 µM; in [4] it was over 100 µM; in test [5], over 100 µM; in test [6], 0.307 µM. The TGI in [7], in test [8] and in [10] was over 100 µM each time.

On to `Cc1cc(N(CCCNc2ccnc3cc(Cl)ccc23)Cc2ccc3c(c2)OCO3)nc(N2CCCCC2)n1`, for which the GI50 in [1] was 2.1 µM; in [2], 1.89 µM; in test [3] it was 2.56 µM; in test [4], 1.35 µM; in test [5], 2.87 µM; in test [6], 1.77 µM. Moreover, the GI50 in [7] is 1.63 µM; in test [8] it was 1.77 µM; in test [9], 1.66 µM; in test [10], 1.41 µM. Further, the TGI in test [1] came to 4.95 µM; in test [2], 4.19 µM; in [3], 38 µM; in [4], 3.28 µM; in test [5], 12 µM; in test [6], 3.47 µM. In addition, the TGI in test [7] came out at 3.19 µM; in [8], 4.84 µM; in test [9], 3.33 µM; in test [10], 4.14 µM.

As for `NCCCN1CCN(CCCNc2nc3ccccc3c3[nH]c4ccccc4c23)CC1`, the GI50 in test [1] is 0.131 µM; in test [2], 0.242 µM; in test [3], 1.31 µM; in test [4], 0.337 µM; in test [6], 1.27 µM; in test [7], 0.659 µM. For the same compound, the results for the GI50 in test [8], in test [9] and in [10] were 0.181 µM, 0.214 µM and 0.352 µM, respectively. Moreover, the TGI stood at 3.88 µM in [1]; 1.31 µM in [2]; 6.22 µM in test [3]; 2.7 µM in test [4]; 1.05 µM in [5]; 2.76 µM in [6]. Moreover, the TGI in test [7] is 4.58 µM; in [8] it was 1.33 µM; in test [9], 1.05 µM; in test [10], 71.9 µM.

As to `Cc1nc2c(N3CCCC3)nc(N3CCNCC3)nc2nc1NCc1ccccc1`, the GI50 in [1] was 5.73 µM; in test [2], 0.869 µM; in test [3], 5.46 µM; in [4], 3.96 µM; in test [5], 6.39 µM; in test [6], 2.64 µM. Also, the GI50 was 3.28 µM in [7], 5.99 µM in [8], 1.77 µM in test [9] and 1.53 µM in [10]. Moreover, the TGI in test [1] was 11 µM and 14.5 µM; in test [2], 4.56 µM and 4.21 µM; in [3] it was 10.6 µM and 20.8 µM; in test [4], 13.4 µM and 11.3 µM; in [5], 13 µM and 19.9 µM; in test [6], 9.12 µM and 3.53 µM. In addition, the TGI is 9.27 µM and 10.7 µM in [7]; 13.3 µM and 5.92 µM in test [8]; 7.59 µM and 3.32 µM in test [9]; 20 µM and > 20.8 µM in test [10].

For `COc1ccc(-c2cc(-c3cccc(NS(C)(=O)=O)c3)nc(N)c2C#N)cc1`, the GI50 in test [1] was 0.222 µM; in test [2], 0.0164 µM; in [3], 0.525 µM; in test [4] it was 0.0496 µM; in [5], 0.298 µM; in test [6], 0.0808 µM. Further, the GI50 was 0.0298 µM in test [7], 0.348 µM in test [8], 0.0747 µM in test [9] and 0.047 µM in test [10]. Besides, the TGI in test [1] was 34.6 µM; in test [2], 1.25 µM; in test [3] it was over 81.6 µM; in [4], 8.73 µM; in test [5], 25.1 µM; in [6], 10.7 µM. Moreover, the TGI in [7] stood at 0.115 µM; in test [8], 25.3 µM; in test [9] it was 0.607 µM; in test [10], 25.7 µM.
